From EP4813992A1, “POLYARYL DERIVATIVE AND USE THEREOF” (Hangzhou HealZen Therapeutics Co., Ltd., priority 2023, dated 2025)

How the values were obtained:
[1] = molecular target: T1, HPK1 kinase (Homo sapiens, UniProt Q92918); test: Lantha screen assay, inhibitory effect on HPK1 kinase; type: biochemical; details: initial compound concentration 1 µM
Method in brief: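 Kinase pre-incubated with compound for 10 min at room temperature in 50 mM HEPES pH 7.5, 10 mM MgCl2, 4 mM DTT, 0.01% Tween-20, 0.01% BSA. Fluorescein-PKC substrate plus ATP then added for 90 min, stopped with antibody/EDTA for 60 min. Top concentration 1 µM; IC50 from four-parameter fit of inhibition vs log concentration.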

[2] = system: HPK1/GLK; test: Selectivity of degrading HPK1/GLK in Jurkat cells (Western blot, 24 h); type: cell-based; details: HPK1/GLK Fold = DC50 (HPK1) / DC50 (GLK)
Description: • 1) Cell plating: Cells are resuscitated, Jurkat cell lines in good growth condition are selected, and cells in the logarithmic growth phase are collected and counted; cell suspensions are seeded into 12 or 24-well plates (20W/well) and incubated overnight at 37°C in a 5% CO2 incubator. • 2) Preparation of compounds to be tested: The compounds to be tested are serially diluted with DMSO according to the experimental requirements and added to the corresponding cell wells, to be incubated at 37°C in a 5% CO2 incubator for 24 h. • 3) Preparation of samples: After the reaction of the compound to be tested is completed, the cells are collected in 1.5 mL EP tubes, and centrifuged at 1500 rpm for 5 min; after the supernatant is discarded, the cells are washed once with PBS, and the BCA protein is quantified and the concentration is adjusted. The adjusted samples are added to 5*loading buffer, boiled at 100°C for 10 minutes, and then the samples are loaded after the temperature is returned to room temperature. • 4) Detection of samples: Electrophoresis is performed using 10% SDS-PAGE with a sample loading volume of 10 µL/well. After the membrane transfer is completed, the samples are blocked with 5% skim milk at room temperature for 1 h. After the residual blocking solution is washed away with TBST, HPK1 and GLK antibodies are added for incubation overnight at 4°C. Washing is performed 3 more times with TBST on a shaker, 5 minutes each time. After washing is completed, the secondary antibody is added for incubation at room temperature in a shaker for 1 hour; then, washing is performed 3 more times with TBST on a shaker, 5 minutes each time; finally, the membrane is soaked in TBST and then subjected to chemiluminescence development. • 5) Data Processing: After the PVDF membrane is developed, the data are exported and plotted using Imang J, and the gray values of the protein bands are analyzed using Image J software; the DC50 curve is fitted using Graphpad Prism 9 software to obtain the results of the selectivity of the compound in degrading HPK1/GLK: HPK1/GLK Fold = DC50 (HPK1) / DC50 (GLK) . Table 3 Selectivity of the compounds of the invention in degrading HPK1/GLK

[3] = molecular target: T1, HPK1 kinase; test: Activity of degrading HPK1 in Jurkat cells (Western blot, 24 h); type: cell-based; set-up: endogenous in cells; host or cells: Jurkat; details: HPK1 protein degradation
Description: The adjusted samples are added to 5*loading buffer, boiled at 100°C for 10 minutes, and then the samples are loaded after the temperature is returned to room temperature. • 4) Detection of samples: Electrophoresis is performed using 10% SDS-PAGE with a sample loading volume of 8 µL/well. After the membrane transfer is completed, the samples are blocked with 5% BSA at room temperature for 1 h. After the residual blocking solution is washed away with TBST, HPK1 and GAPDH antibodies are added for incubation overnight at 4°C. Washing is performed 3 more times with TBST on a shaker, 10 minutes each time. After washing is completed, the secondary antibody is added for incubation at room temperature for 1 hour; then, washing is performed 3 more times with TBST on a shaker, 10 minutes each time; finally, ECL exposure solution is used to develop and image the bands to detect changes in HPK1 protein.

T1 sequence (Q92918 whole entry): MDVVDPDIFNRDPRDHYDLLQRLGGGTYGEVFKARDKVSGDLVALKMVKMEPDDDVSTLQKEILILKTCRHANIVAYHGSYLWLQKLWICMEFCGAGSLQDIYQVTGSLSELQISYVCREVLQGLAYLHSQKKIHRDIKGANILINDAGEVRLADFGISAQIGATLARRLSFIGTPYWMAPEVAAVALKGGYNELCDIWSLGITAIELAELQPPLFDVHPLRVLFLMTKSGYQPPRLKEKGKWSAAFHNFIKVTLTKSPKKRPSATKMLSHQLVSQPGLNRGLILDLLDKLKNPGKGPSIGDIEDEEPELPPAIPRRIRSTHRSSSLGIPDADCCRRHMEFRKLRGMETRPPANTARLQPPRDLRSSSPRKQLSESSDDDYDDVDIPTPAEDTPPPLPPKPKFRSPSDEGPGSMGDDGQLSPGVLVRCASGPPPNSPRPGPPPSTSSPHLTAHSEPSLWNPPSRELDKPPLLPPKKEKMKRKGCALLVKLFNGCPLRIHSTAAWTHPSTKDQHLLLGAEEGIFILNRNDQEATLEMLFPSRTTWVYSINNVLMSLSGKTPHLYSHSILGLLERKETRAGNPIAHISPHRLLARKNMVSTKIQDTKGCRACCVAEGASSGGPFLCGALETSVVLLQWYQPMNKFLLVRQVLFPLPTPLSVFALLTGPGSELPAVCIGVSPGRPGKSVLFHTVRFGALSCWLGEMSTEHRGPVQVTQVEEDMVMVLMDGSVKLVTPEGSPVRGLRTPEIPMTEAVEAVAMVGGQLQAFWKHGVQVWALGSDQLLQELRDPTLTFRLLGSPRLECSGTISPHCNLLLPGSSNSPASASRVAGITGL

Row | SMILES | IC50 [1] [nM] | HPK1/GLK Fold [2] | DC50 ([3]; class symbols) [nM] | DC50 ([3]; numeric values) [nM]
1 | Cc1cc(N2CC(C(C)N3CC=C(c4c(C)cc(-c5cnc6[nH]cc(-c7ccc(C(=O)N(C)C)cc7)c6n5)cc4C)CC3)C2)ccc1N1CCC(=O)NC1=O (centres unmarked) [compound 042] | < 10 | ++++ (1000≤Fold) | – | –
2 | Cc1cc(N2CCC(CN3CC=C(c4c(C)cc(-c5cnc6[nH]cc(-c7ccc(C(=O)N(C)C)cc7)c6n5)cc4C)CC3)CC2)ccc1N1CCC(=O)NC1=O [compound 113] | < 10 | ++++ (1000≤Fold) | < 10 | –
3 | Cc1cc(-c2cnc3[nH]cc(-c4ccc(C(=O)N(C)C)cc4)c3n2)cc(C)c1C1=CCN(C2CN(c3ccc(C(=O)NC4CCC(=O)NC4=O)nc3)C2)CC1 (centres unmarked) [compound 012] | < 10 | ++++ (1000≤Fold) | – | –
4 | Cc1cc(-c2cnc3[nH]cc(-c4ccc(C(=O)N(C)C)cc4)c3c2)cc(C)c1C1=CCN(CC2CN(C(=O)c3ccc(Cl)c(N4CCC(=O)NC4=O)c3)C2)CC1 [compound 130] | < 10 | ++++ (1000≤Fold) | – | –
5 | COc1ccc(C(=O)N2CC(N3CC=C(c4c(C)cc(-c5cnc6[nH]cc(-c7ccc(C(=O)N(C)C)cc7)c6n5)cc4C)CC3)C2)cc1N1CCC(=O)NC1=O [compound 061] | < 10 | ++++ (1000≤Fold) | – | –
6 | Cc1cc(-c2cnc3[nH]cc(-c4ccc(C(=O)N(C)C)cc4)c3n2)cc(C)c1C1=CCN(CC2CN(c3ccc(C(=O)NC4CCC(=O)NC4=O)cn3)C2)CC1 (centres unmarked) [compound 089] | < 10 | ++++ (1000≤Fold) | – | –
7 | Cc1cc(N2CC(CN3CC=C(c4c(C)cc(-c5cnc6[nH]cc(-c7ccc8c(c7)CCN(C)C8=O)c6c5)cc4C)CC3)C2)ccc1N1CCC(=O)NC1=O [compound 099] | < 10 | ++++ (1000≤Fold) | < 10 | –
8 | Cc1cc(-c2cnc3[nH]cc(-c4ccc(C(=O)N(C)C)cc4)c3n2)cc(C)c1C1=CCN(CC2CN(c3cc(F)c(N4CCC(=O)NC4=O)c(F)c3)C2)CC1 [compound 079] | < 10 | ++++ (1000≤Fold) | – | –
9 | CCc1nc(C)c(-c2c[nH]c3ncc(-c4cc(C)c(C5=CCN(CC6CN(c7ccc(N8CCC(=O)NC8=O)c(F)c7)C6)CC5)c(C)c4)nc23)s1 [compound 152] | < 10 | – | < 10 | –
10 | Cc1cc(-c2cnc3[nH]cc(-c4ccc(C(=O)N(C)C)cc4)c3n2)cc(C)c1C1=CCN(CC2CN(c3ccc(C4CCC(=O)NC4=O)c(F)c3)C2)CC1 (centres unmarked) [compound 003] | < 10 | – | < 10 | –
11 | Cc1cc(-c2cnc3[nH]cc(-c4ccc(C(=O)N5CC6(COC6)C5)cc4)c3n2)cc(C)c1C1=CCN(CC2CN(c3ccc(N4CCC(=O)NC4=O)c(F)c3)C2)CC1 [compound 105] | < 10 | ++++ (1000≤Fold) | < 10 | –
12 | Cc1cc(-c2cnc3[nH]cc(-c4cnc(C(F)(F)F)s4)c3n2)cc(C)c1C1=CCN(CC2CN(c3ccc(N4CCC(=O)NC4=O)c(F)c3)C2)CC1 [compound 165] | < 10 | ++++ (1000≤Fold) | < 10 | –
13 | CCN1CCC(n2cc(-c3c[nH]c4ncc(-c5cc(C)c(C6=CCN(CC7CN(c8ccc(N9CCC(=O)NC9=O)c(F)c8)C7)CC6)c(C)c5)nc34)cn2)CC1 [compound 108] | < 10 | – | – | 22.3
14 | Cc1cc(-c2cnc3[nH]cc(-c4cc(Cl)sc4Cl)c3n2)cc(C)c1C1=CCN(CC2CN(c3ccc(N4CCC(=O)NC4=O)c(F)c3)C2)CC1 [compound 149] | < 10 | – | < 10 | –
15 | Cc1ccn2c(-c3c[nH]c4ncc(-c5cc(C)c(C6=CCN(CC7CN(c8ccc(N9CCC(=O)NC9=O)c(F)c8)C7)CC6)c(C)c5)nc34)cnc2c1 [compound 168] | < 10 | – | < 10 | –
16 | Cc1cc(-c2cnc3[nH]cc(-c4ccc(C(=O)N(C)C)cc4)c3n2)cc(C)c1C1=CCN(CC2CCN(c3ccc(NC4CCC(=O)NC4=O)cc3F)CC2)CC1 (centres unmarked) [compound 018] | < 10 | ++++ (1000≤Fold) | < 10 | –

Row | SMILES | IC50 [1] [nM] | HPK1/GLK Fold [2] | DC50 ([3]; class symbols) [nM] | DC50 ([3]; numeric values) [nM]
17 | Cc1cc(-c2cnc3[nH]cc(-n4cc(C(F)F)cn4)c3n2)cc(C)c1C1=CCN(CC2CN(c3ccc(N4CCC(=O)NC4=O)c(F)c3)C2)CC1 [compound 159] | < 10 | – | < 10 | –
18 | Cc1cc(-c2cnc3[nH]cc(-c4cnsc4)c3n2)cc(C)c1C1=CCN(CC2CN(c3ccc(N4CCC(=O)NC4=O)c(F)c3)C2)CC1 [compound 154] | < 10 | – | < 10 | –
19 | Cc1cc(-c2c[nH]c3ncc(-c4cc(C)c(C5=CCN(CC6CN(c7ccc(N8CCC(=O)NC8=O)c(F)c7)C6)CC5)c(C)c4)nc23)ccc1C(=O)N(C)C [compound 146] | < 10 | ++++ (1000≤Fold) | – | –
20 | Cc1cc(-c2cnc3[nH]cc(-c4c(C)noc4C)c3n2)cc(C)c1C1=CCN(CC2CN(c3ccc(N4CCC(=O)NC4=O)c(F)c3)C2)CC1 [compound 155] | < 10 | – | < 10 | –
21 | Cc1cc(N2CC(CN3CC=C(c4ccc(-c5cnc6[nH]cc(-c7ccc(C(=O)N(C)C)cc7)c6c5)cc4C(C)C)CC3)C2)ccc1N1CCC(=O)NC1=O [compound 129] | < 10 | ++++ (1000≤Fold) | < 10 | –
22 | Cc1nsc(-c2c[nH]c3ncc(-c4cc(C)c(C5=CCN(CC6CN(c7ccc(N8CCC(=O)NC8=O)c(F)c7)C6)CC5)c(C)c4)nc23)n1 [compound 171] | < 10 | – | < 10 | –
23 | Cc1cc(-c2cnc3[nH]cc(-c4ccc(C(=O)N(C)C)cc4)c3n2)cc(C)c1C1=CCN(C2CC3(C2)CN(c2ccc(N4CCC(=O)NC4=O)c(F)c2)C3)CC1 [compound 119] | < 10 | – | < 10 | –
24 | Cc1cc(-c2cnc3[nH]cc(-n4ncc5c4CCC5)c3n2)cc(C)c1C1=CCN(CC2CN(c3ccc(N4CCC(=O)NC4=O)c(F)c3)C2)CC1 [compound 164] | < 10 | – | < 10 | –
25 | Cc1cc(N2CC(CN3CC=C(c4ccc(-c5cnc6[nH]cc(-c7ccc(C(=O)N(C)C)cc7)c6n5)cc4CN(C)C)CC3)C2)ccc1N1CCC(=O)NC1=O [compound 139] | < 10 | – | < 10 | –
26 | Cc1cc(-c2cnc3[nH]cc(-c4cnco4)c3n2)cc(C)c1C1=CCN(CC2CN(c3ccc(N4CCC(=O)NC4=O)c(F)c3)C2)CC1 [compound 169] | < 10 | – | < 10 | –
27 | Cc1cc(-c2cnc3[nH]cc(-c4cn(CC(F)(F)F)nn4)c3n2)cc(C)c1C1=CCN(CC2CN(c3ccc(N4CCC(=O)NC4=O)c(F)c3)C2)CC1 [compound 148] | < 10 | – | < 10 | –
28 | Cc1cc(-c2cnc3[nH]cc(-c4ccc(C(=O)N(C)C)cc4)c3n2)cc(C)c1C1=CCN(CC2CN(c3ccc(N4CCC(=O)NC4=O)cc3)C2)CC1 [compound 008] | < 10 | – | < 10 | –
29 | Cc1cc(-c2cnc3[nH]cc(-c4ccc(C(=O)N(C)CC(C)O)cc4)c3n2)cc(C)c1C1=CCN(CC2CN(c3ccc(N4CCC(=O)NC4=O)c(F)c3)C2)CC1 (centres unmarked) [compound 107] | < 10 | ++++ (1000≤Fold) | – | –
30 | Cc1cc(-c2cnc3[nH]cc(-c4cncs4)c3n2)cc(C)c1C1=CCN(CC2CN(c3ccc(N4CCC(=O)NC4=O)c(F)c3)C2)CC1 [compound 153] | < 10 | – | < 10 | –
31 | Cc1cc(-c2cnc3[nH]cc(-n4cc(N5CCOCC5)cn4)c3n2)cc(C)c1C1=CCN(CC2CN(c3ccc(N4CCC(=O)NC4=O)c(F)c3)C2)CC1 [compound 157] | < 10 | – | < 10 | –
